Experimental data: US20240376092A1 (priority 2021, published 2024)

Columns and labels:
[1] = tested on: PrPC; format: cell-based, mouse; conditions: especially in DC2
[2] = tested on: naive HEK293 cells; experiment: Intrinsic toxicity in naive HEK293 cells (MTT); format: cell-based; conditions: 8-point dose-response curve, 48 h
Description: FIG. 3. Dose-response analysis of selected compounds. (A) Chemical structures of the selected molecules are shown in panel. (B) A dose-response analysis using the DBCA was employed to evaluate the anti-ΔCR PrP effects of the different molecules. The graphs show a quantification of the dose-dependent, rescuing effect of each molecule. Average values were obtained from a minimum of 3 independent experiments (n≥3), and expressed as a percentage of cell viability in untreated cells. Data were fitted to a sigmoidal function using a 4-parameter logistic (4PL) non-linear regression model, allowing the estimation of the half-maximal inhibitory concentration (IC50). (C) The intrinsic toxicity of each compound was evaluated in naive HEK293 cells, exposed to each molecule/concentration for 48 h at 37° C. Cytotoxicity was evaluated by MTT. Average values were obtained from a minimum of 3 independent experiments (n≥3), and expressed as a percentage of cell viability in untreated cells. Data were fitted to an inverse sigmoidal function using a 4PL non-linear regression model, allowing the estimation of the half-maximal toxicity dose (LD50).
The DBCA was performed as described previously^24, with minor modifications. Briefly, HEK293 cells expressing ΔCR PrP were cultured at ˜60% confluence in 24-well plates on day 1. On day 2, cells were treated with 500 μg/mL of Zeocinfor. Medium (containing fresh Zeocin and/or compound or vehicle) was replaced every 24 hr. On day 5, cell medium was removed and cells were incubated with 1 mg/mL of 3-(4,5-dimethylthiazol-2-yl)-2,5-diphenyltetrazolium bromide (MTT, Sigma Aldrich, St. Louis, MO) in PBS for 30 min at 37° C. MTT was carefully removed, and cells were re-suspended in 500 μL of DMSO. Values for each well were obtained by measuring at 570 nm, using a plate spectrophotometer (Biotek).

[3] = tested on: PrPC; conditions: HEK293 WT PrPC, 48 hours
[4] = in vitro; conditions: rat, microsomes
[5] = tested on: Fyn kinase; format: cell-based, mouse
[6] = target: full-length human recombinant PrPC (Homo sapiens, UniProt P04156); format: binding; conditions: 0.1-1000 μM, highest concentration 1 mM
[7] = tested on: primary hippocampal neurons; format: cell-based, mouse
[8] = tested on: HEK293 cells expressing ΔCR PrP; experiment: cells; format: cell-based; set-up: Emax: dose or concentration left out as unconfirmed
[9] = tested on: DC2; format: cell-based, mouse
[10] = tested on: FXR; format: cell-based, mouse
[11] = mouse, in vivo

O=C(CN1c2ccc(C(F)(F)F)cc2-c2ccccc2S1(=O)=O)NC1CCCCC1 [SM231, N-cyclohexyl-2-[5,5-dioxido-9-(trifluoromethyl)-6H-dibenzo[c,e][1,2]thiazin-6-yl]acetamide]
PrPC level in DC1 and DC2 [1]: slightly increases
LD50 (lethal dose at 50%) [2]: 22.4 µM
total PrPC expression [3]: no difference in PrPC expression was found
half-life [4]: 25 min
effect on Aβ-induced Fyn phosphorylation [5]: completely abrogated Aβ effects
binding to recombinant PrPC by DMR [6]: no interaction was observed
effect on Aβ-induced decrease of post-synaptic markers (GluN2A, GluN2B, GluA1, GluA2, PSD-95) [7]: significantly rescued the levels of all the post-synaptic markers
Emax ([8]; HEK293, 48 h, read-out: % RMAX: maximum rescuing effect, expressed as percentage of the effect of SM3(LD24) at the same concentration): 140%
IC50 ([8]; HEK293, read-out: IC50 (rescuing dose at 50%)): 140 nM
expansion of FoxP3+ LAP+ Treg cells by treated DC2 [9]: favor the expansion of T cells expressing Treg cell markers FoxP3 and LAP
FXR transcriptional activity (FXR, Nr0b2 mRNA) [10]: promoted significant FXR transcriptional activity
EAE clinical score / disease severity [11]: reduced disease as compared to control mice
secretion of IL-17A and GM-CSF by CD4+ T cells from cervical lymph nodes re-stimulated with MOG [11]: reduced secretion of inflammatory cytokines
white matter demyelination and inflammatory infiltrates [11]: reduced
